Data taken from the NIST ThermoML archive (doi:10.1016/j.fluid.2010.10.022).
± gives the expanded uncertainty stated by the source.

Test: excess molar enthalpy (molar enthalpy of mixing); xn = mol fraction of the nth substance listed
Conditions: 298.15 K, 101 kPa, Liquid, Flow calorimetry

CC#CCCC [2-hexyne] + CCCOC(C)=O
excess molar enthalpy (x2 = 0.1094): 0.0106 ± 0.00239 kcal/mol
excess molar enthalpy (x2 = 0.204): 0.0174 ± 0.00239 kcal/mol
excess molar enthalpy (x2 = 0.3153): 0.022 ± 0.00239 kcal/mol
excess molar enthalpy (x2 = 0.4179): 0.0249 ± 0.00239 kcal/mol
excess molar enthalpy (x2 = 0.5044): 0.0245 ± 0.00239 kcal/mol
excess molar enthalpy (x2 = 0.5938): 0.0215 ± 0.00239 kcal/mol
excess molar enthalpy (x2 = 0.7075): 0.0157 ± 0.00239 kcal/mol
excess molar enthalpy (x2 = 0.7983): 0.0108 ± 0.00239 kcal/mol
excess molar enthalpy (x2 = 0.8927): 0.00645 ± 0.00239 kcal/mol

CCC#CCC [3-hexyne] + CCCOC(C)=O
excess molar enthalpy (x2 = 0.0968): 0.0105 ± 0.00239 kcal/mol
excess molar enthalpy (x2 = 0.202): 0.0186 ± 0.00239 kcal/mol
excess molar enthalpy (x2 = 0.3025): 0.0269 ± 0.00239 kcal/mol
excess molar enthalpy (x2 = 0.4063): 0.0341 ± 0.00239 kcal/mol
excess molar enthalpy (x2 = 0.4979): 0.0377 ± 0.00239 kcal/mol
excess molar enthalpy (x2 = 0.5956): 0.0353 ± 0.00239 kcal/mol
excess molar enthalpy (x2 = 0.7045): 0.0267 ± 0.00239 kcal/mol
excess molar enthalpy (x2 = 0.7995): 0.0182 ± 0.00239 kcal/mol
excess molar enthalpy (x2 = 0.8928): 0.0101 ± 0.00239 kcal/mol

C#CCCCC [1-hexyne] + CCCOC(C)=O
excess molar enthalpy (x2 = 0.1079): -0.0304 ± 0.00239 kcal/mol
excess molar enthalpy (x2 = 0.1967): -0.0477 ± 0.00239 kcal/mol
excess molar enthalpy (x2 = 0.3032): -0.0608 ± 0.00239 kcal/mol
excess molar enthalpy (x2 = 0.395): -0.066 ± 0.00239 kcal/mol
excess molar enthalpy (x2 = 0.4373): -0.0664 ± 0.00239 kcal/mol
excess molar enthalpy (x2 = 0.5003): -0.0654 ± 0.00239 kcal/mol
excess molar enthalpy (x2 = 0.595): -0.0605 ± 0.00239 kcal/mol
excess molar enthalpy (x2 = 0.6575): -0.0553 ± 0.00239 kcal/mol
excess molar enthalpy (x2 = 0.6989): -0.0511 ± 0.00239 kcal/mol
excess molar enthalpy (x2 = 0.7967): -0.038 ± 0.00239 kcal/mol
excess molar enthalpy (x2 = 0.8992): -0.0205 ± 0.00239 kcal/mol
